This test concerns the target recombinant GST fusion MALT1 (human MALT1) (Homo sapiens (Human), UniProt Q9UDY8). Nature of the test: Evaluation of inhibition of protease activity of MALT1 (cleavage of fluorescent peptide substrate Ac-LRSR-AMC). The test is classed as biochemical. The settings on record: substrate Ac-LRSR-AMC 20 μmol/L, 30° C. for 80 minutes. The essentials: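 GST-tagged full-length human MALT1 from E. coli ([…]) was preincubated with compound 30 min at room temperature. Buffer: MES, 150 mM NaCl, 10% sucrose, 0.1% CHAPS, 10 mM DTT, 1 mol/L ammonium citrate. Ac-LRSR-AMC (20 μM final) was then cleaved 80 min at 30 °C; AMC fluorescence (Ex 380/Em 460) gain gave % inhibition versus no-enzyme and DMSO controls.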

pIC50: −log10 of the molar value.

Chain of recombinant GST fusion MALT1 (human MALT1) (Q9UDY8 whole entry, the tested form may be a part): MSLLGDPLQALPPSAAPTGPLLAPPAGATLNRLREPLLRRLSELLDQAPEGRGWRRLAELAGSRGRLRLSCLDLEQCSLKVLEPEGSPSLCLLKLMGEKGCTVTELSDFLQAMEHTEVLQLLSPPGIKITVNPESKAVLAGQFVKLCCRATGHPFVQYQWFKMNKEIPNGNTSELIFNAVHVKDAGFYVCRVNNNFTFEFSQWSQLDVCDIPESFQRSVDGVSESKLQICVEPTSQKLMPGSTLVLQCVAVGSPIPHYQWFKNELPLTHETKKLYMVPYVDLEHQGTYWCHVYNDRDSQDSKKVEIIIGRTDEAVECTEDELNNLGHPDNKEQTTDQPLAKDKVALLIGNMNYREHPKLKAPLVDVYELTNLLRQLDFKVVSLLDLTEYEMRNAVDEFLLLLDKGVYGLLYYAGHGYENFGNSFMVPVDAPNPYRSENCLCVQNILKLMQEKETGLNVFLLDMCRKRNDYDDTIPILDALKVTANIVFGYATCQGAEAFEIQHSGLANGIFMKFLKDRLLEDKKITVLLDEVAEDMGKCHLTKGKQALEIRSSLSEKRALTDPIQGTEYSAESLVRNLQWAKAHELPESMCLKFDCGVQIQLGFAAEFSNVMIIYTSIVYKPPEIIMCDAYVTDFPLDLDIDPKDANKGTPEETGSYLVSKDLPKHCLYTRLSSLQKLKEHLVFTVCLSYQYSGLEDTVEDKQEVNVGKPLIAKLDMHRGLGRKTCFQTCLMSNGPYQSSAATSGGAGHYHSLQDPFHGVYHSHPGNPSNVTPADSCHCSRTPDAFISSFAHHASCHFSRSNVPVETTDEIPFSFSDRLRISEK

Usually pIC50 stands for the negative decadic logarithm of the IC50, by convention in mol/L. `Cc1ccc(-c2ncc(CN/C(N)=N/S(=O)(=O)c3ccccc3)cc2-c2ccc(Cl)cc2)c(F)c1` [Compound of Example 13, N-(amino(((5-(4-chlorophenyl)-6-(2-fluoro-4-methylphenyl)pyridin-3-yl)methyl)amino)methylene)benzenesulfonamide]: the pIC50 was 6.63. Next, `NN/C(=N\S(=O)(=O)c1ccccc1)NCc1cnc(-c2ccc(Cl)cc2)c(-c2ccc(Cl)cc2)c1` [Compound of Example 38, N-((5,6-bis(4-chlorophenyl)pyridin-3-yl)methyl)-N′-(phenylsulfonyl)hydrazinecarboximidate]: 7.05. Under `COc1ccc(-c2cc(CN/C(N)=N/S(=O)(=O)c3ccccc3)cnc2-c2ccc(C)cc2)cc1` [Compound of Example 24, N-(amino(((5-(4-methoxyphenyl)-6-(4-methylphenyl)pyridin-3-yl)methyl)amino)methylene)benzenesulfoamide] stands 6.85; under `N/C(=N\C(=O)CC(F)(F)F)NCc1cnc(-c2ccc(Cl)cc2)c(-c2ccc(Cl)cc2)c1` [Compound of Example 84, N-(amino(((5,6-bis(4-chlorophenyl)pyridin-3-yl)methyl)amino)methylene)-3,3,3-trifluoropropanamide], 5.86; under `N/C(=N\S(=O)(=O)c1ccccc1F)NCc1cnc(-c2ccc(Cl)cc2)c(-c2ccc(Cl)cc2)c1` [Compound of Example 26, N-(amino(((5,6-bis(4-chlorophenyl)pyridin-3-yl)methyl)amino)methylene)-2-fluorobenzenesulfonamide], 6.50.

Take `N/C(=N\S(=O)(=O)c1cc2ccccc2s1)NCc1cnc(-c2ccc(Cl)cc2)c(-c2ccc(Cl)cc2)c1` [Compound of Example 55, N-(amino(((5,6-bis(4-chlorophenyl)pyridin-3-yl)methyl)amino)methylene)benzo[b]thiophene-2-sulfonamide]: the pIC50 is 6.74. Under `N/C(=N\C(=O)c1nccs1)NCc1cnc(-c2ccc(Cl)cc2)c(-c2ccc(Cl)cc2)c1` [Compound of Example 61, N-(amino(((5,6-bis(4-chlorophenyl)pyridin-3-yl)methyl)amino)methylene)thiazole-2-carboxamide] stands 6.39; under `CCCCCC(=O)/N=C(\N)NCc1cnc(-c2ccc(Cl)cc2)c(-c2ccc(Cl)cc2)c1` [Compound of Example 65, N-(amino(((5,6-bis(4-chlorophenyl)pyridin-3-yl)methyl)amino)methylene)hexanamide], 6.34.

As for `N/C(=N\S(=O)(=O)c1ccco1)NCc1cnc(-c2ccc(Cl)cc2)c(-c2ccc(Cl)cc2)c1` [Compound of Example 31, N-(amino(((5,6-bis(4-chlorophenyl)pyridin-3-yl)methyl)amino)methylene)furan-2-sulfonamide], the pIC50 is 6.99.

`N/C(=N\C(=O)CCc1ccccc1)NCc1cnc(-c2ccc(Cl)cc2)c(-c2ccc(Cl)cc2)c1` [Compound of Example 74, N-(amino(((5,6-bis(4-chlorophenyl)pyridin-3-yl)methyl)amino)methylene)-3-phenylpropanamide]: the negative logarithm of the IC50 (pIC50) was 6.53. Under `N/C(=N\S(=O)(=O)c1ccoc1)NCc1cnc(-c2ccc(Cl)cc2)c(-c2ccc(Cl)cc2)c1` [Compound of Example 32, N-(amino(((5,6-bis(4-chlorophenyl)pyridin-3-yl)methyl)amino)methylene)furan-3-sulfonamide] stands 6.81; under `Cc1nc(-c2ccc(Cl)cc2)c(-c2ccc(Cl)cc2)cc1CN/C(N)=N/S(=O)(=O)c1ccccc1` [Compound of Example 90, N-(amino(((5,6-bis(4-chlorophenyl)-2-methylpyridin-3-yl)methyl)amino)methylene)benzenesulfonamide], 6.63; under `N/C(=N\C(=O)c1ccccc1)NCc1cnc(-c2ccc(Cl)cc2)c(-c2ccc(Cl)cc2)c1` [Compound of Example 34, N-(amino(((5,6-bis(4-chlorophenyl)pyridin-3-yl)methyl)amino)methylene)benzamide], 6.09. With `N/C(=N\S(=O)(=O)C1CCCCC1)NCc1cnc(-c2ccc(Cl)cc2)c(-c2ccc(Cl)cc2)c1` [Compound of Example 56, N-(amino(((5,6-bis(4-chlorophenyl)pyridin-3-yl)methyl)amino)methylene)cyclohexanesulfonamide], the pIC50 was 6.37. Next, `N/C(=N\S(=O)(=O)c1ccsc1)NCc1cnc(-c2ccc(Cl)cc2)c(-c2ccc(Cl)cc2)c1` [Compound of Example 30, N-(amino(((5,6-bis(4-chlorophenyl)pyridin-3-yl)methyl)amino)methylene)thiophene-3-sulfonamide]: 6.94; `COc1cccc(S(=O)(=O)/N=C(\N)NCc2cnc(-c3ccc(Cl)cc3)c(-c3ccc(Cl)cc3)c2)c1` [Compound of Example 50, N-(amino(((5,6-bis(4-chlorophenyl)pyridin-3-yl)methyl)amino)methylene)-3-methoxybenzenesulfonamide]: 6.94. Under `N/C(=N\S(=O)(=O)c1ccccc1)NCc1cc(-c2ccc(Cl)cc2)c(-c2ccc(Cl)cc2)nc1F` [Compound of Example 89, N-(amino(((5,6-bis(4-chlorophenyl)-2-fluoropyridin-3-yl)methyl)amino)methylene)benzenesulfonamide] stands 6.43; under `N/C(=N\S(=O)(=O)c1ccccc1)NCc1cnc(-c2ccc(Cl)cc2)c(-c2ccc(C(F)(F)F)cc2)c1` [Compound of Example 21, N-(Amino(((6-(4-chlorophenyl)-5-(4-(trifluoromethyl)phenyl)pyridin-3-yl)methyl)amino)methylene)benzenesulfonamide], 5.99.

(Values after patent publication US10662156B2, “Guanidine derivative and medical use thereof” (Toray Industries, Inc., priority 2016, dated 2020).)
